Laboratory results reported in PMC9316000, “Preclinical Drug Pharmacokinetic, Tissue Distribution and Excretion Profiles of the Novel Limonin Derivate HY-071085 as an Anti-Inflammatory and Analgesic Candidate in Rats and Beagle Dogs” (Pharmaceuticals, 2022).
Like-named read-outs stand apart in the source and are kept apart here.

Key:
[1] = Plasma protein binding, rat plasma; type: in vitro ADME; settings: read-out: plasma protein binding rate (converted)
Procedure: (§1) The PPB rate in dogs was about 40% at different concentrations in the concentration range (50–400 ng/mL), and in rats it was about 75%. The PPB rate in human plasma varied greatly at different concentrations, ranging from 100% at a low drug concentration to 58% at a high drug concentration, as shown in Table 4.

[2] = Pharmacokinetics after single-dose intravenous administration in beagle dogs; type: in vivo; settings: S-IV 1.25 mg/kg
Procedure: After the intravenous administration of 1.25 mg/kg HY-071085, there was also no gender difference for the plasma concentration time data in Figure 9.
In vivo PK profiling in dogs: Beagle dogs (approximately 8–10 kg in weight) were purchased from Jiangsu Yadong Experimental Animal Research Institute Co. Ltd (Nanjing, China). Before the experiment, several beagle dogs were randomly divided into several groups, half males and half females in each group. Four cycles of single-dose administration experiments were carried out, and the cleaning period was 3–5 days. Repeated-dose administration was carried out after the end of four cycles of single-dose administrations and cleaning periods. According to the dosage for the rats, the dosage for the beagle dogs was converted via the body surface area method. The HY-071085 active pharmaceutical ingredients were administered with a dosage volume of 2 mL/kg body weight. The whole-blood samples were centrifuged at 8000 rpm for 5 min, and the plasma samples were separated and stored at –80 °C until the analysis.
(§2) According to the obtained plasma concentration time data, the pharmacokinetic parameters were calculated using Phoenix WinNonlin 8.1 software. The pharmacokinetic parameters—i.e., the area under the curve (AUC), mean residence time (MRT), clearance rate (Cl/F) and steady-state apparent distribution volume (Vss/F)—were calculated by the method of moments, which was estimated according to the following formulae: AUCtn=∑Ci+Ci−1ti−ti−1/2 AUC∞=AUCtn+Cm/λ AUMCtn=∑tiCi+ti−1Ci−1ti−ti−1/2 AUMC∞=AUMCtn+Ctntn/λ+1/λ^2 MRT=AUMC∞/AUC∞ Cl/F=Dose/AUC Vss/F=Cl∗MRT where Ctn is the plasma concentration of tn at the last point after administration, and the elimination rate constant was obtained by ln(concentration) time linear regression.
(§3) Due to the drug having significant individual differences in rats, it could not be uniformly fitted with a PK atrioventricular model; as such, the pharmacokinetic parameters analyzed in this study were calculated using a non-atrioventricular model. The pharmacokinetic parameters are defined as follows: Cmax is the maximum blood concentration after administration and absorption, Tmax is the time required to reach Cmax, t1/2 is the time required to eliminate half of the plasma drug concentration after the drug distribution in the body reaches equilibrium, Cl/F is the apparent clearance rate, AUC0-tn is the area under the blood concentration time curve within the dosing interval, AUC0-∞ is the area under the plasma concentration time curve from 0 to infinity, MRT is the average time that all drug molecules stay in the body, and Vss/F is the steady-state apparent distribution volume, which is the product of the clearance rate and average residence time.

[3] = Plasma protein binding, human plasma; type: in vitro ADME; settings: mean, read-out: plasma protein binding rate (converted)
Procedure: as §1

[4] = Pharmacokinetics after single-dose intragastric administration in rats; type: in vivo, Sprague Dawley rats; settings: for bioavailability / MRT / AUC / AUC(0-inf) / CL/F / Tmax / Cmax / half-life / Vd/F: rat, plasma; for bioavailability: 3.25 mg/kg intragastric vs intravenous, from AUCs, read-out: absolute oral bioavailability; for AUC: read-out: AUC0-tn; for Vd/F: read-out: Vss/F
Procedure: Blood samples were collected from the fundus venous plexus at various times within 8 h after administration in order to analyze the concentration of HY-071085 in plasma.
The profiles of the mean plasma concentration of HY-071085 versus time after a single dose in rats are presented in Figure 2 and Figure 3, and the PK parameters are listed in Table 1. […] At the three doses, the AUCtn ratios of the female rats and male rats were 3.5, 3.9 and 2.4, respectively. The AUCtn ratio among male rats was 1:5.16:41.06, and among female rats was 1:5.71:28.20.
In vivo PK profiling in the rats: Sprague Dawley rats (approximately 177–221 g in weight) were purchased from Shanghai Xipur-Bikai Experimental Animal Co., Ltd. (Shanghai, China). Before the experiment, several rats were randomly divided into several groups, half males and half females in each group, fasting but free to drink water for 12 h. The dosage of the rats was dependent on the drug pharmacology: the HY-071085 active pharmaceutical ingredients were administered with a dosage volume of 0.25 mL/100 g body weight. The whole-blood samples were centrifuged at 8000 rpm for 5 min, and the plasma samples were separated and stored at –80 °C until the analysis.
as §2, §3

[5] = set-up: method as in earlier work; settings: Temp 25℃; cited from earlier work
[6] = set-up: method as in earlier work; settings: Temp 25℃, pH 7.4; cited from earlier work
[7] = Sprague Dawley, po, female rats, S-IG 3.25 mg/kg
[8] = Sprague Dawley, po, female rats, S-IG 6.5 mg/kg
[9] = Sprague Dawley, po, female rats, S-IG 13 mg/kg
[10] = Sprague Dawley, po, male rats, S-IG 3.25 mg/kg
[11] = Sprague Dawley, po, male rats, S-IG 6.5 mg/kg
[12] = Sprague Dawley, po, male rats, S-IG 13 mg/kg
[13] = Sprague-Dawley, po, female rats, S-IG 3.25 mg/kg
[14] = Sprague-Dawley, po, female rats, S-IG 6.5 mg/kg
[15] = Sprague-Dawley, po, female rats, S-IG 13 mg/kg
[16] = Sprague-Dawley, po, male rats, S-IG 3.25 mg/kg
[17] = Sprague-Dawley, po, male rats, S-IG 6.5 mg/kg
[18] = Sprague-Dawley, po, male rats, S-IG 13 mg/kg

CC1(C)OC2CC(=O)OCC23C1C/C(=N\OCCN1CCOCC1)C1(C)C3CC[C@@]2(C)[C@H](c3ccoc3)OC(=O)C3OC312 (stereo partly drawn) [HY-071085, (12S,12aS,E)-12-(furan-3-yl)-6,6,8a,12a-tetramethyl-8-((2-morpholinoethoxy)imino)dodecahydro-1H,3H-oxireno [2,3-d]pyrano [4’,3’:3,3a]isobenzofuro [5,4-f]isochromene-3,10(9aH)-dione]
fraction unbound at 50 ng/mL ([1]; 50 ng/mL, mean): 0.261
fraction unbound at 100 ng/mL ([1]; 100 ng/mL, mean): 0.247
fraction unbound at 200 ng/mL ([1]; 200 ng/mL, mean): 0.228
fraction unbound at 400 ng/mL ([1]; 400 ng/mL, mean): 0.211
fraction unbound ([1]; rat, rats, concentration range 50–400 ng/mL): ~0.25
Cl/F [2]: 51.2 ± 24.2 mL/min/kg
Vss/F [2]: 2.07 ± 1.17 L/kg
AUC(0-inf) ([2]; both sexes, dog, plasma): 594 ± 538 ng·h/mL
Cmax ([2]; both sexes, dog, plasma): 1200 ± 1510 ng/mL
MRT ([2]; both sexes, dog, plasma): 0.62 ± 0.2 h
Tmax ([2]; both sexes, dog, plasma): 5.4 ± 1.8 min
half-life ([2]; both sexes, dog, plasma): 0.7 ± 0.09 h
AUC ([2]; both sexes, dog, plasma, read-out: AUC0-tn): 591 ± 539 ng·h/mL
fraction unbound at 100 ng/mL ([3]; 100 ng/mL): 0.267
fraction unbound at 200 ng/mL ([3]; 200 ng/mL): 0.325
fraction unbound at 400 ng/mL ([3]; 400 ng/mL): 0.384
AUCtn ratio of female rats and male rats ([4]; S-IG 3.25 mg/kg): 3.5
AUCtn ratio of female rats and male rats ([4]; S-IG 6.5 mg/kg): 3.9
AUCtn ratio of female rats and male rats ([4]; S-IG 13 mg/kg): 2.4
bioavailability ([4]; Sprague Dawley, oral, male rats): 2.83%
bioavailability ([4]; Sprague Dawley, po, female rats): 10.8%
MRT [4, 7]: 4.06 ± 0.82 h
AUC [4, 7]: 73.7 ± 25.3 ng·h/mL
AUC(0-inf) [4, 8]: 429 ± 204 ng·h/mL
CL/F [4, 8]: 302 mL/min/kg
MRT [4, 8]: 2.57 ± 0.64 h
AUC [4, 8]: 421 ± 205 ng·h/mL
MRT [4, 9]: 2.29 ± 0.92 h
Tmax [4, 9]: 0.95 ± 0.51 h
AUC [4, 9]: 2080 ± 407 ng·h/mL
bioavailability ([4]; Sprague Dawley, po, male rats): 2.8%
MRT [4, 10]: 3.48 ± 1.98 h
AUC [4, 10]: 20.8 ± 3.01 ng·h/mL
AUC(0-inf) [4, 11]: 125 ± 72.3 ng·h/mL
CL/F [4, 11]: 1180 mL/min/kg
MRT [4, 11]: 2.89 ± 1.87 h
AUC [4, 11]: 108 ± 54.2 ng·h/mL
MRT [4, 12]: 1.94 ± 0.39 h
AUC [4, 12]: 855 ± 290 ng·h/mL
Cmax [4, 13]: 20.4 ± 9.08 ng/mL
Tmax [4, 13]: 0.7 ± 0.73 h
half-life [4, 13]: 2.16 ± 1.13 h
Cmax [4, 14]: 145 ± 64.5 ng/mL
Tmax [4, 14]: 0.9 ± 0.68 h
half-life [4, 14]: 1.3 ± 0.36 h
Vd/F [4, 14]: 36.3 ± 23.2 L/kg
Cmax [4, 15]: 761 ± 322 ng/mL
half-life [4, 15]: 0.9 ± 0.42 h
Cmax [4, 16]: 11.3 ± 4.54 ng/mL
Tmax [4, 16]: 0.22 ± 0.04 h
half-life [4, 16]: 2.35 ± 1.27 h
Cmax [4, 17]: 107 ± 139 ng/mL
Tmax [4, 17]: 0.45 ± 0.59 h
half-life [4, 17]: 1.98 ± 1.04 h
Vd/F [4, 17]: 172 ± 70.3 L/kg
Cmax [4, 18]: 381 ± 152 ng/mL
Tmax [4, 18]: 0.85 ± 0.45 h
half-life [4, 18]: 1.21 ± 0.31 h
drug exposure of female rats relative to male rats ([4]; single-dose intragastric administration): about three times
Intrinsic solubility [5]: 4500 µg/mL
LogD [6]: 2.45
